# Patent publication EP0492930A2, “Transdermal delivery of dobutamine” (ELI LILLY AND COMPANY, priority 1990, dated 1992)
# Test system: male beagle dogs
# Assay: In vivo transdermal delivery: cardiac contractility change in anesthetized dogs
# Description: To corroborate the in vitro results obtained using formulations of the present invention, the ability of the present formulation to provide transdermal delivery of dobutamine lactobionate through the skin of a living dog was also studied.
# Two male beagle dogs were anesthetized with 100 mg/kg of sodium phenobarbitol and prepared for monitoring of electrocardiogram, contractile tension, heart rate and mean arterial pressure. Dobutamine lactobionate was administered by an i.v. bolus (4, 8 and 16 mcg/kg). After each animal's response returned to baseline, 1.0 ml of a formulation containing 218.9 mg of dobutamine lactobionate (100 mg equivalents of dobutamine free base), 2.0 mg of sodium bisulfite, 10.0 mg of n-decyl methyl sulfoxide in 1 ml of water was applied to a 25 cm² shaved area in the groin-abdominal region of each dog. Cardiac contractility changes in each dog were then monitored for the next 3 to 5 hours.
# Column 2 discloses the time elapsed from the time the formulation was applied and Column 3 discloses the percent change in contractility (from baseline) observed at the time value shown in Column 2.
smiles,measurement,setting,value
"CC(CCc1ccc(O)cc1)NCCc1ccc(O)c(O)c1 (racemic) [dobutamine lactobionate, (±)-N-[3-(4-hydroxyphenyl)-1-methylpropyl]-2-(3,4-dihydroxyphenyl)ethylamine]",% Change In Contractility,"Method I (applied directly to skin), 20 min",30%
same,% Change In Contractility,"Method I (applied directly to skin), 30 min",35%
same,% Change In Contractility,"Method I (applied directly to skin), 60 min",48%
same,% Change In Contractility,"Method I (applied directly to skin), 90 min",21%
same,% Change In Contractility,"Method I (applied directly to skin), 120 min",16%
same,% Change In Contractility,"Method I (applied directly to skin), 180 min",0%
same,% Change In Contractility,"Method I (applied directly to skin, covered with plastic film), 10 min, 1.0 ml formulation (218.9 mg lactobionate, 10.0 mg n-decyl methyl sulfoxide) on 25 cm² shaved skin, change from baseline",16%
same,% Change In Contractility,"Method II (cellulose triacetate polymer patch), 10 min, 1.0 ml formulation (218.9 mg lactobionate, 10.0 mg n-decyl methyl sulfoxide), change from baseline",10%
same,% Change In Contractility,"Method II (patch), 20 min",26%
same,% Change In Contractility,"Method II (patch), 30 min",24%
same,% Change In Contractility,"Method II (patch), 60 min",36%
same,% Change In Contractility,"Method II (patch), 90 min",41%
same,% Change In Contractility,"Method II (patch), 120 min",33%
same,% Change In Contractility,"Method II (patch), 150 min",25%
same,% Change In Contractility,"Method II (patch), 180 min",27%
same,% Change In Contractility,"Method II (patch), 210 min",22%
same,% Change In Contractility,"Method II (patch), 240 min",9%
same,% Change In Contractility,"Method II (patch), 270 min",9%
same,% Change In Contractility,"Method II (patch), 300 min",11%
